Test results: patent publication US20060240057A1, “Termiticide compositions” (priority 2003, published 2006)
Like-named read-outs stand apart in the source and are kept apart here.

Assays:
[1] = test system: termite (Reticulitermes flavipes) workers; assay: Termite mortality by soil applications of combinations of bifenthrin and acetamiprid (soil column in glass tube); type: in vivo; conditions: soil application, read-out: Percent Mortality; for mortality at 60 ppm: Bifenthrin @ 60 ppm; for mortality at 500 ppm: Acetamiprid @ 500 ppm
Experimental: (§1) Test compositions made up of Talstar® Termiticide/Insecticide and a 70% wettable powder of acetamiprid in distilled water were prepared that provided appropriate rates of application of combinations of bifenthrin and acetamiprid, as well as bifenthrin and acetamiprid alone.
Glass tubing, 13 mm in diameter, was then cut into 20 cm sections in sufficient quantity to conduct the test. Each […] section of tubing was marked at 5 cm, 8 cm, and 18 cm distances from one end of the tube designated as the bottom. Each section of tubing was packed with a sandy soil (3% wt/wt moisture content) by first placing a section of a 1 cm diameter wooden dowel into the bottom of the glass tube up to the 8 cm marking, then introducing approximately 2 cm of soil into the other end of the tube designated as the top. The soil was then gently packed into the tube from the top using a second section of the 1 cm diameter wooden dowel. The process was repeated using 2 cm aliquots of soil until the soil level was adjacent to the 18 cm marking, thereby providing a column of soil 10 cm in height. An agar plug, which was formed in a section of the 13 mm diameter glass tubing of the type used to conduct these tests, was cut into 3 cm sections. A 3 cm section of agar was then gently pushed into the bottom of each tube containing the soil until the agar plug firmly touched the soil at the 8 cm marking, thereby creating a 5 cm void in the bottom of each section of tubing. Following placement of the agar plugs in each section of tubing; two sections of applicator sticks cut in 6 cm lengths were inserted into the bottom end of each tube thereby forcing about 1 cm of each stick into the agar plug to hold the agar plug in place. Plastic caps, with an inside diameter of 13 mm and holes drilled in their centers, were placed on the bottom ends of each of the sections of tubing. A sharpened applicator stick was then inserted into the hole in each plastic cap through the agar plug to the intersection of the agar plug and the soil. The applicator stick was then gently removed in a rotating manner to provide a means for a free flow of liquid through the soil. Each section of tubing was then stood upright, and 0.5 niL aliquots of each suspension of bifenthrin, acetamiprid or combinations thereof, as prepared above, were pipetted onto the top of the soil. Upon application of the test suspensions the top of each section of tubing was covered with a small piece of aluminum foil. The tubes were then allowed to stand for about 20 hours to allow movement of the termiticide(s) downward into the soil. After this time a plastic cap of 13 mm inside diameter was placed on the top of each section of tubing. The plastic caps with the holes drilled in their centers were removed from the bottom of each section of tubing, and a piece of 0.5 cm×4 cm filter paper was then placed between the two sections of applicator sticks. Fifty termite (Reticulitermes flavipes) workers were then inserted into the 5 cm void in the bottom of each section of tubing. New plastic caps without holes drilled in their centers were placed on the bottom of each section of tubing. The sections of tubing were then stored in an upright position, with the termites located below the soil. At 1, 3, 6, 8, 10, 13, 15, 17, 20, and 22 days after treatment (DAT), termite mortality was measured.

[2] = test system: termites (Reticulitermes flavipes); assay: Termite mortality by direct application (track sprayer) of combinations of bifenthrin and acetamiprid to termites; type: in vivo; conditions: for mortality at 10 ppm / mortality at 50 ppm / mortality at 100 ppm / mortality at 200 ppm: Reticulitermes flavipes, read-out: Percent Mortality
Experimental: as §1
Solutions of the test materials were applied directly to 50 termites (Reticulitermes flavipes) per petri plate using a track sprayer calibrated to deliver 1.2 ml per petri plate at 40 psi. After application, petri dishes with treated termites were inverted onto fresh petri plates containing dry filter paper. After all applications were completed, termites were then transferred to petri dishes containing moist soil with cardboard as a food source. Expired termites were removed at each reading. At 0 hours, 1 hour, 2 hours, 1 day, and 2 days after treatment (HAT or DAT, respectively), termite mortality was measured. The following calculation determined whether the combination treatments provided enhanced activity over what would be expected based on the activity of each active ingredient separately: [formula]
A and B refer to the two separate treatments of two different active ingredients at specific rates.

How did the mortality at 60 ppm ([1]; 24 h, 1 DAT) turn out when `Cc1c(COC(=O)[C@@H]2[C@H](/C=C(\Cl)C(F)(F)F)C2(C)C)cccc1-c1ccccc1` (racemic) [Bifenthrin, bifenthrin] was run?
The mortality at 60 ppm was 6%.

What about the mortality at 60 ppm ([1]; 72 h, 3 DAT) of the same molecule?
Its mortality at 60 ppm is 6%.

And the mortality at 60 ppm ([1]; 144 h, 6 DAT)?
The mortality at 60 ppm was 11%.

What about the mortality at 60 ppm ([1]; 192 h, 8 DAT) of the same molecule?
Its mortality at 60 ppm is 13%.

What about the mortality at 60 ppm ([1]; 240 h, 10 DAT) of the same molecule?
The mortality at 60 ppm was 13%.

What about the mortality at 60 ppm ([1]; 312 h, 13 DAT) of the same molecule?
Its mortality at 60 ppm is 13%.

What about the mortality at 60 ppm ([1]; 360 h, 15 DAT) of the same molecule?
The mortality at 60 ppm was 16%.

What about the mortality at 60 ppm ([1]; 408 h, 17 DAT) of the same molecule?
The mortality at 60 ppm was 16%.

And the mortality at 60 ppm ([1]; 480 h, 20 DAT)?
The mortality at 60 ppm was 16%.

And the mortality at 60 ppm ([1]; 528 h, 22 DAT)?
The mortality at 60 ppm was 16%.

And the “Percent Mortality” value ([2]; Bifenthrin @ 10 ppm, 1 HAT)?
Its value is 0%.

And the “Percent Mortality” value ([2]; Bifenthrin @ 10 ppm, 2 HAT)?
Its value is 0%.

What about the “Percent Mortality” value ([2]; Bifenthrin @ 50 ppm, 1 HAT) of the same molecule?
The value was 0%.

What about the “Percent Mortality” value ([2]; Bifenthrin @ 50 ppm, 2 HAT) of the same molecule?
Its value is 0%.

And the mortality at 10 ppm ([2]; 24 h, Bifenthrin @ 10 ppm, 1 DAT)?
Its mortality at 10 ppm is 11%.

What about the mortality at 50 ppm ([2]; 24 h, Bifenthrin @ 50 ppm, 1 DAT) of the same molecule?
Its mortality at 50 ppm is 63%.

And the mortality at 10 ppm ([2]; 48 h, Bifenthrin @ 10 ppm, 2 DAT)?
The mortality at 10 ppm was 26%.

What about the mortality at 50 ppm ([2]; 48 h, Bifenthrin @ 50 ppm, 2 DAT) of the same molecule?
Its mortality at 50 ppm is 96%.

What about the mortality at 10 ppm ([2]; Bifenthrin @ 10 ppm, 0 HAT) of the same molecule?
Its mortality at 10 ppm is 0%.

What about the mortality at 50 ppm ([2]; Bifenthrin @ 50 ppm, 0 HAT) of the same molecule?
Its mortality at 50 ppm is 0%.

Which results are given for `C/C(=N\C#N)N(C)Cc1ccc(Cl)nc1` [Acetamiprid, acetamiprid]?
mortality at 500 ppm ([1]; 24 h, 1 DAT): 5%; mortality at 500 ppm ([1]; 72 h, 3 DAT): 84%; mortality at 500 ppm ([1]; 144 h, 6 DAT): 100%; mortality at 500 ppm ([1]; 192 h, 8 DAT): 100%; mortality at 500 ppm ([1]; 240 h, 10 DAT): 100%; mortality at 500 ppm ([1]; 312 h, 13 DAT): 100%; mortality at 500 ppm ([1]; 360 h, 15 DAT): 100%; mortality at 500 ppm ([1]; 408 h, 17 DAT): 100%; mortality at 500 ppm ([1]; 480 h, 20 DAT): 100%; mortality at 500 ppm ([1]; 528 h, 22 DAT): 100%; Percent Mortality ([2]; Acetamiprid @ 100 ppm, 1 HAT): 0%; Percent Mortality ([2]; Acetamiprid @ 100 ppm, 2 HAT): 0%; Percent Mortality ([2]; Acetamiprid @ 200 ppm, 1 HAT): 0%; Percent Mortality ([2]; Acetamiprid @ 200 ppm, 2 HAT): 0%; mortality at 100 ppm ([2]; 24 h, Acetamiprid @ 100 ppm, 1 DAT): 16%; mortality at 200 ppm ([2]; 24 h, Acetamiprid @ 200 ppm, 1 DAT): 35%; mortality at 100 ppm ([2]; 48 h, Acetamiprid @ 100 ppm, 2 DAT): 78%; mortality at 200 ppm ([2]; 48 h, Acetamiprid @ 200 ppm, 2 DAT): 88%; mortality at 100 ppm ([2]; Acetamiprid @ 100 ppm, 0 HAT): 0%; mortality at 200 ppm ([2]; Acetamiprid @ 200 ppm, 0 HAT): 0%
